Values after ≈ are worked out from the molar mass of the structure shown. Active and inactive are the calls of the source. The rule behind the calls is not given here.
How the values were obtained:
[1] = tested on: HeLa; test: Antiproliferative activity against human HeLa cells assessed as reduction in cell viability measured at 24 hrs by MTT assay; format: functional, cell-based
[2] = tested on: HeLa; test: Antiproliferative activity against human HeLa cells assessed as reduction in cell viability measured at 48 hrs by MTT assay; format: functional, cell-based
[3] = tested on: HDFa; test: Antiproliferative activity against human HDFa cells assessed as reduction in cell viability measured at 48 hrs by MTT assay; format: functional, cell-based
[4] = Toxicity in nude mouse xenografted with human MCF7 cells assessed as side effects at 400 mg/kg, po; format: organism-based; details: in vivo
[5] = target: T1, CYP2C8 (Homo sapiens, UniProt P10632); test: Inhibition of CYP2C8 in human liver microsomes at 10 uM relative to control; format: ADME, Microsome
T1 sequence (P10632 whole entry): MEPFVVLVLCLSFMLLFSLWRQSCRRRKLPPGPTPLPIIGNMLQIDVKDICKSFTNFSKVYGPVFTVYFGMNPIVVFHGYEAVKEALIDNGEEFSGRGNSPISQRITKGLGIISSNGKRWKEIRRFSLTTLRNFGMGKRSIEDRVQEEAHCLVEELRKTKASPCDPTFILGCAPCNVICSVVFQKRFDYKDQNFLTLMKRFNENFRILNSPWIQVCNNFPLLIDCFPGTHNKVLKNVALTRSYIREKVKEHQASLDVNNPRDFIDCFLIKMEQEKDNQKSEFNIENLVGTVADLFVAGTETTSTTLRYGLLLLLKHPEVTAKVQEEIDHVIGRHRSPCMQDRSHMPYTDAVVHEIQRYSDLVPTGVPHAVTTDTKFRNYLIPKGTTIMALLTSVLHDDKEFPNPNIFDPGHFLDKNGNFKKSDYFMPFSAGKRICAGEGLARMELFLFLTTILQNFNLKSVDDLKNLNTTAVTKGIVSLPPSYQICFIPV

[6] = Aqueous solubility of the compound in simulated gastric fluid; format: ADME
[7] = Permeability across apical to basolateral side in human Caco-2 cells; format: ADME, cell-based; details: read-out: permeability
[8] = Plasma protein binding in human relative to control; format: ADME, cell-free; details: read-out: PPB (converted)
[9] = Half life in human liver microsomes; format: ADME, Microsome
[10] = Lipophilicity, logD of the compound; format: physicochemical; details: octanol/water
[11] = Aqueous solubility of the compound in simulated intestinal fluid; format: ADME
[12] = target: CYP3A (Homo sapiens, UniProt P08684+P20815+P24462+Q9HB55); test: Inhibition of CYP3A in human liver microsomes at 10 uM relative to control; format: ADME, Microsome
[13] = target: CYP2C19 (Homo sapiens, UniProt P33261); test: Inhibition of CYP2C19 in human liver microsomes at 10 uM relative to control; format: ADME, Microsome
[14] = Aqueous solubility of compound in PBS at pH 7.4; format: physicochemical
[15] = Permeability across basolateral to apical side in human Caco-2 cells; format: ADME, cell-based; details: read-out: permeability
[16] = Drug recovery in human plasma relative to control; format: ADME, cell-free
[17] = target: Cytochrome P450 2C19 (Homo sapiens, UniProt P33261); test: Inhibition of CYP2C19 in human liver microsomes; format: ADME, Microsome
[18] = target: CYP2C9 (Homo sapiens, UniProt P11712); test: Inhibition of CYP2C9 in human liver microsomes at 10 uM relative to control; format: ADME, Microsome
[19] = target: T2, Cytochrome P450 2C8 (Homo sapiens, UniProt P10632); test: Inhibition of CYP2C8 in human liver microsomes; format: ADME, Microsome
T2 sequence (P10632 whole entry): T1 sequence (P10632 whole entry)

[20] = target: Cytochrome P450 2C9 (Homo sapiens, UniProt P11712); test: Inhibition of CYP2C9 in human liver microsomes; format: ADME, Microsome
Chain of Cytochrome P450 2C9 (P11712 whole entry): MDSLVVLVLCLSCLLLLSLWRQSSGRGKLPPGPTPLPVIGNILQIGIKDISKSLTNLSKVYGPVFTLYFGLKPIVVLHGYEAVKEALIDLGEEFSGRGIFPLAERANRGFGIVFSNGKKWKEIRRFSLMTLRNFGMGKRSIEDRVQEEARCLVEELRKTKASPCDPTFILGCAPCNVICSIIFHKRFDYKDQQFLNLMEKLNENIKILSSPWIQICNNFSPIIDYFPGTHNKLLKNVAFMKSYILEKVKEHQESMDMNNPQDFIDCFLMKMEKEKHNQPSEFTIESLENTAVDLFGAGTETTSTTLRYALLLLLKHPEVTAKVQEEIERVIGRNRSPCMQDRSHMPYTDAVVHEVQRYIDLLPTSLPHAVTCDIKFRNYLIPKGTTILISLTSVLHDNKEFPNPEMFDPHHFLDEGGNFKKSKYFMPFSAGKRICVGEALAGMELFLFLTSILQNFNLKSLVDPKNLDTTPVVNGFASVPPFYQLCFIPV

Chain of CYP2C19 (P33261 whole entry): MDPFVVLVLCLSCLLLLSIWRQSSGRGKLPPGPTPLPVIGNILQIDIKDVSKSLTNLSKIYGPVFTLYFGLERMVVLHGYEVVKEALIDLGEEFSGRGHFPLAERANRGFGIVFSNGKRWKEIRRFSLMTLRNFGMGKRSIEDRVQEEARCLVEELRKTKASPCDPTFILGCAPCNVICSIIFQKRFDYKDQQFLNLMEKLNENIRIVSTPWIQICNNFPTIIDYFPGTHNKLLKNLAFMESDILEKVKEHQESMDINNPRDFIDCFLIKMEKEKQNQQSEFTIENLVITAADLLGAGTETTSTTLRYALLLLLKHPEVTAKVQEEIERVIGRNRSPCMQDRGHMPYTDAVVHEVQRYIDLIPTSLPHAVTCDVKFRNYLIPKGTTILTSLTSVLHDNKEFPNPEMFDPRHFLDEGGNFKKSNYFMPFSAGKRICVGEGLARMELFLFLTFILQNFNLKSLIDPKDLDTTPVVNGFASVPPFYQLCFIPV
Chain of Cytochrome P450 2C19 (P33261 whole entry): as above
Chain of CYP2C9 (P11712 whole entry): as the sequence (P11712 whole entry) above

SMILES	IC50 [1] [µM]	IC50 [2] [µM]	further results
CC(=O)c1c(O)c(C)c(O)c2c1OC1=Cc3c(c(C)nn3C)C(=O)[C@@]12C	> 15	3.91	
CC(=O)c1c(O)c(C)c(O)c2c1O[C@@H]1Cc3n[nH]c(C)c3[C@H](O)[C@]21C	> 15	> 15	
CC(=O)c1c(O)c(C)c(O)c2c1OC1=CC(=O)c3c(nn(C)c3C)[C@@]12C	0.928	0.116	Activity [3]: inactive
CC(=O)c1c(O)c(C)c(O)c2c1OC1=CC(=O)c3c(C)noc3[C@@]12C	> 15	> 15	
COc1cccc2c1C(=O)c1c(O)c3c(c(O)c1C2=O)C[C@@](O)(C(=O)CO)C[C@@H]3O[C@H]1C[C@H](N)[C@H](O)[C@H](C)O1 [DOXORUBICIN]	3.33	0.429	
CC(=O)c1c(O)c(C)c(O)c2c1OC1=Cc3c(c(C)nn3-c3ccccn3)C(=O)[C@@]12C	> 15	> 15	
CCn1nc(C)c2c1C=C1Oc3c(C(C)=O)c(O)c(C)c(O)c3[C@@]1(C)C2=O	> 15	11	
CC(=O)c1c(O)c(C)c(O)c2c1OC1=CC(O)=C(/C(C)=N/N(C)C)C(=O)[C@@]12C	> 15	> 15	
CC(=O)c1c(O)c(C)c(O)c2c1OC1=CC(O)=C(/C(C)=N/N)C(=O)[C@@]12C	> 15	> 15	
CC(=O)c1c(O)c(C)c(O)c2c1OC1=CC(=O)c3c(n[nH]c3C)[C@@]12C	1.92	0.878	IC50 [17]: 0.009 µM; inhibition at 10 µM [18]: 74.6%; Activity [3]: inactive; inhibition at 10 µM [5]: 52.6%; solubility [6]: > 200 µM; Papp A→B [7]: 11.3 ×10⁻⁶ cm/s; fraction unbound [8]: 0.04; half-life [9]: > 1 h; logD [10]: > 3.68; solubility [11]: 11.5 µM (≈ 3.91 µg/mL); inhibition at 10 µM [12]: 51.3%; inhibition at 10 µM [13]: 65.9%; solubility [14]: 4 µM (≈ 1.36 µg/mL); Papp B→A [15]: 1.6 ×10⁻⁶ cm/s; IC50 [19]: 1.9 µM; IC50 [20]: 0.094 µM; Drug recovery [16]: 19%
CC(=O)C1=C(O)C=C2Oc3c(C(C)=O)c(O)c(C)c(O)c3[C@@]2(C)C1=O [(+)-USNIC ACID]	> 15	> 15	fraction unbound [8]: 0.0024; half-life [9]: 1.32 h; Drug recovery [16]: 95%

Further lines, with some results ahead:

IC50 [1] [µM]	IC50 [2] [µM]	SMILES	further results
> 15	> 15	CC(=O)c1c(O)c(C)c(O)c2c1O[C@@H]1Cc3n[nH]c(C)c3C(=O)[C@]21C	
> 15	> 15	CC(=O)c1c(O)c(C)c(O)c2c1OC1=Cc3c(c(C)nn3C(C)(C)C)C(=O)[C@@]12C	
1.36	0.311	CC(=O)c1c(O)c(C)c(O)c2c1OC1=Cc3[nH]nc(C)c3C(=O)[C@@]12C	Activity [3]: inactive
7.15	2.21	CC(=O)c1c(O)c(C)c(O)c2c1OC1=Cc3onc(C)c3C(=O)[C@@]12C	Activity [4]: Non-Toxic; inhibition at 10 µM [5]: 8.5%; solubility [6]: 37.6 µM (≈ 12.8 µg/mL); Papp A→B [7]: 2.2 ×10⁻⁶ cm/s; fraction unbound [8]: 0.06; half-life [9]: 0.383 h; logD [10]: 3.32; solubility [11]: 1.6 µM (≈ 0.546 µg/mL); inhibition at 10 µM [12]: 14.7%; inhibition at 10 µM [13]: 15.6%; solubility [14]: 0.2 µM (≈ 0.0683 µg/mL); Papp B→A [15]: 0.2 ×10⁻⁶ cm/s; Drug recovery [16]: 19%
> 15	> 15	CC(=O)c1c(O)c(C)c(O)c2c1OC1=Cc3c(c(C)nn3CCBr)C(=O)[C@@]12C	
> 15	> 15	CC(=O)c1c(O)c(C)c(O)c2c1OC1=CC(=O)c3c(C)nn(C)c3[C@@]12C	
> 15	8.65	CC(C)=N/N=C(\C)c1c(O)c(C)c(O)c2c1OC1=CC(=O)c3c(n[nH]c3C)[C@@]12C	
> 15	> 15	CC(=O)c1c(O)c(C)c(O)c2c1OC1=Cc3c(c(C)nn3CCO)C(=O)[C@@]12C	

Reference: ChEMBL document CHEMBL5223157, “Divergent reactivity of usnic acid and evaluation of its derivatives for antiproliferative activity against cancer cells” (Bioorg Med Chem, 2023)
